{
  "source": "patent US10364470B2",
  "about": "“Long non-coding RNA expressed in aggressive cancer” (The Regents of the University of California, priority 2014, dated 2019)",
  "assay_type_in_all_cases": "cell-based, human",
  "key": {"SAILOR": {"test_system": "SAILOR", "experiment": "SAILOR knockdown with shRNA in BT549 cell lines", "excerpt": "(§1) The effect of SAILOR on the growth rate of BT549 cells was studied. SAILOR expression was reduced by ˜80% in BT549 cell lines with a short-hairpin RNA (shRNA), 5′-[…]-3′ (SEQ ID NO:14), which targets SAILOR exon 4 at sequence […] (SEQ ID NO:15) (FIG. 5)."}, "BT549 cells": {"test_system": "BT549 cells", "experiment": "Growth rate of BT549 cells after SAILOR knockdown", "excerpt": "as §1"}, "SATB1": {"test_system": "SATB1", "experiment": "SATB1 transcription or protein level after SAILOR knockdown", "details": "BT549 cells"}},
  "data": [
    {"substance": "5′-GGTGGAAGAGTAAACTGTTCCCGAAGGAACAGTTTACTCTTCCACC-3′ (expressed or natural sequence) [shRNA]", "values": [
      {"measurement": "SAILOR expression reduced (knock down)", "setting": "SAILOR", "result": "~80", "unit": "%"},
      {"measurement": "growth rate of SAILOR knockdown cells", "setting": "BT549 cells", "result": "slowed growth rate"},
      {"measurement": "effect of reduced SAILOR levels on SATB1 transcription or protein level", "setting": "SATB1", "result": "did not affect"}
    ]}
  ]
}
